Source: publication PMC6383986, “Fragment-Based Covalent Ligand Screening Enables Rapid Discovery of Inhibitors for the RBR E3 Ubiquitin Ligase HOIP” (Journal of the American Chemical Society, 2019)

Assays:
Type in all cases: cell-based
Conditions in all cases: 30 μM (11a) 7 h vs DMSO, then 3 μM (15) 2 h
[1] = target: T1, DHX36 (Homo sapiens, UniProt Q9H2U1); test: ABPP quantitative MS, MCF7
T1 construct: endogenous in cells; host or cells: MCF7
Procedure: (§1) control and cells treated with control compounds (11i) and (17) at 30 µM). HOIP RBR wild type […]
(§2) nm, indicating low to no labelling by (11a), and a dominant signal from the 800 channel (green).
(§3) C = HOIP RBR control (0.5 µg).
(§4) 5.2 Activity-based protein profiling – Enrichment and LC-MS
(§5) Cell culture and transfection, compound treatment, ha rvest and lysis
(§6) HEK293T cells were cultured and transfected as describ ed in section 4.8 above. MCF7 cells were seeded in 100 mm Petri dishes at 6 × 10^5 cells/dish and cultured overnight at 37 °C as described in section 4.8 above. Both cell types were treated with inhibitor (11a) (30 µM final concentration) or DMSO as described above, incubating for 7 h at 37 °C, followed by addition of clickable probe (15) (3 µM final concentration) and incubation for an additional 2 h. The cells were then harvested and lysed (50 mM Tris-HCl, pH 7.5, 1.5 mM MgCl2, 150 mM NaCl, 5% glycerol, 0.8% v/v IGEPAL-CA630, 25 mM NaF, 1 mM Na3VO4, complete protease inhibitor), and the protein concentration was determined by the BCA assay as described in section 4.7 above.
(§7) Enrichment of TCO-labelled proteins
(§8) Similar to a previously described protocol,22 tetrazine beads were generated by incubating high capacity neutravidin beads (500 µL; Thermo Scientific) with 0.1 µmol tetrazine-PEG4-biotin (Jena Bioscience) in PBS buffer over night at 4 °C, followed by blocking with 5 µL 100 mM biotin in DMSO for 30 minutes at 4 °C. The beads were washed 3× with buffer (50 mM Tris-HCl pH 7.4, 5% glycerol, 1.5 mM MgCl2, 150 mM NaCl, 1 mM Na3VO3, 5 mM NaF) supplemented with 0.4% IGEPAL CA-630 and adjusted to a 5% v/v slurry.
(§9) Lysate with a protein concentration of approx. 2 mg/mL (500 µL) were added to the TCO beads (35 µL) on a 96-well filter plate (Porvair, Dunn #240002) and incubated at 4°C for 2 h. After incubation, beads were washed using a vacuum manifold with 5 mL wash buffer 1 (WB1) (50 mM […]
(§10) (50 mM HEPES pH 8.5, 2 M urea), and 5 mL WB4 (50 mM HEPES pH 8.5). Proteins were then eluted by on bead digestion: 60 µL elution buffer (50 mM HEPES pH 8.5, 5 mM Tris-(2-carboxyethyl)phosphine, 15 mM chloroacetamide, 0.004 µg LysC/ µL (Wako chemicals), 0.004 µg trypsin/µL (Promega)) were added to the washed beads and incubated over night at room temperature. Eluates were collected by centrifugation, beads incubated with an additional 60 µL WB4, eluted and both eluates were combined and lyophilized. […]
(§11) proportional to the number of ions; this measure is referred to as ion area.24 Spectra matching to peptides were filtered according to the following criteria: mascot ion score >15, signal-to-background of the precursor ion >4, and signal -to-interference >0.5. Fold-changes were corrected for isotope purity and adjusted for interference caused by co-eluting nearly isobaric peaks.25 Protein quantification was derived from individual spectra matching to distinct peptides by using a sum-based bootstrap algorithm; 95% confidence intervals were calculated for all protein fold-changes that were quantified with more than three spectra.23 Relative protein abundance s were generated on the basis of MS1 abundances .26 Briefly, XIC peaks were matched to identified peptides. […] These values were then summed, and the mean was calculated.
(§12) In cases where fewer than 3 sequences were associated, the mean was calculated using XIC intensities from either one or two sequences.
(§13) Proteins were filtered for >1 quantified spectra matches (qusm). Residual binding was calculated […]

[2] = target: T2, SRBD1 (Homo sapiens, UniProt Q8N5C6); test: ABPP quantitative MS, MCF7
T2 construct: endogenous in cells; host or cells: MCF7
T2 sequence (Q8N5C6 whole entry): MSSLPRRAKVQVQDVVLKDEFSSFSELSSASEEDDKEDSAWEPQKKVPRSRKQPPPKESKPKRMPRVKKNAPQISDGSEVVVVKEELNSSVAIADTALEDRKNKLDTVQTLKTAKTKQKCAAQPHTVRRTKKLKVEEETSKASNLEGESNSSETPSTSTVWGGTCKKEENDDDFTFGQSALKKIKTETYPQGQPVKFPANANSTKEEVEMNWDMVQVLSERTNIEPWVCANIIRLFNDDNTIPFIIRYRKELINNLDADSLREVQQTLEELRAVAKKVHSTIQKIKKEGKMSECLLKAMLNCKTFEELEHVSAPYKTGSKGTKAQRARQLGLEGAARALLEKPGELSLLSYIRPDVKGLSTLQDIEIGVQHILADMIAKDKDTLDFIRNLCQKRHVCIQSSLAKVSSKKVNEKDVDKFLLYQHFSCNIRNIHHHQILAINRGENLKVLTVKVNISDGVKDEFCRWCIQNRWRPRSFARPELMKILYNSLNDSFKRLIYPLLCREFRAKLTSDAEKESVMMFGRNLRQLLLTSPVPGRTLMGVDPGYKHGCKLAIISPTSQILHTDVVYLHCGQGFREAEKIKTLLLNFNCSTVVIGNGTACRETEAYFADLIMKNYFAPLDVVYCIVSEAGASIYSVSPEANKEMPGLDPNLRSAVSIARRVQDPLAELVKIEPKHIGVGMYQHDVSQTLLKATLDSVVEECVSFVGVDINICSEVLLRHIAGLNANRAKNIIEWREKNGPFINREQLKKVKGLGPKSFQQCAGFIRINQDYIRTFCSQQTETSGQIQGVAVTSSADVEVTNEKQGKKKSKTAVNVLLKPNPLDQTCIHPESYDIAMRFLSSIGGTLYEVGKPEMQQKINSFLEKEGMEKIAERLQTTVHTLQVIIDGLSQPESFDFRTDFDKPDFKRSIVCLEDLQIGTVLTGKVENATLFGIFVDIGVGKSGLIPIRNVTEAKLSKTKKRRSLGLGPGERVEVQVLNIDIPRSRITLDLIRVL
Procedure: as §1, §2, §3, §4, §5, §6, §7, §8, §9, §10, §11, §12, §13

[3] = target: T3, SMG9 (Homo sapiens, UniProt Q9H0W8); test: ABPP quantitative MS, MCF7
T3 construct: endogenous in cells; host or cells: MCF7
T3 sequence (Q9H0W8 whole entry): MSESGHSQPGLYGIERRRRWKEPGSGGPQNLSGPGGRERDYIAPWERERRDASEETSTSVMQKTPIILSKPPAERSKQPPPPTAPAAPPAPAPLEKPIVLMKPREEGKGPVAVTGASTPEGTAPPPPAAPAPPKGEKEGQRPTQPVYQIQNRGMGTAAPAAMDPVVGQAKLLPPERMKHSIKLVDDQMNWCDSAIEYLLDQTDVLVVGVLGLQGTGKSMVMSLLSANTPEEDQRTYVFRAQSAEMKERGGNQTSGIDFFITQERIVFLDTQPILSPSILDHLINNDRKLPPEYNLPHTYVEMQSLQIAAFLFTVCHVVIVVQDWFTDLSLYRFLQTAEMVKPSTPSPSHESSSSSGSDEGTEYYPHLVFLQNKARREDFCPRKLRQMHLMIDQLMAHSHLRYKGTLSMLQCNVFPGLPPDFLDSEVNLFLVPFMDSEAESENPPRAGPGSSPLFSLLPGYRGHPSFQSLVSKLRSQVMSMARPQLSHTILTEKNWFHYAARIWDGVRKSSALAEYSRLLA
Procedure: as §1, §2, §3, §4, §5, §6, §7, §8, §9, §10, §11, §12, §13

[4] = target: T4, GCLC (Homo sapiens, UniProt P48506); test: ABPP quantitative MS, MCF7
T4 construct: endogenous in cells; host or cells: MCF7
T4 sequence (P48506 whole entry): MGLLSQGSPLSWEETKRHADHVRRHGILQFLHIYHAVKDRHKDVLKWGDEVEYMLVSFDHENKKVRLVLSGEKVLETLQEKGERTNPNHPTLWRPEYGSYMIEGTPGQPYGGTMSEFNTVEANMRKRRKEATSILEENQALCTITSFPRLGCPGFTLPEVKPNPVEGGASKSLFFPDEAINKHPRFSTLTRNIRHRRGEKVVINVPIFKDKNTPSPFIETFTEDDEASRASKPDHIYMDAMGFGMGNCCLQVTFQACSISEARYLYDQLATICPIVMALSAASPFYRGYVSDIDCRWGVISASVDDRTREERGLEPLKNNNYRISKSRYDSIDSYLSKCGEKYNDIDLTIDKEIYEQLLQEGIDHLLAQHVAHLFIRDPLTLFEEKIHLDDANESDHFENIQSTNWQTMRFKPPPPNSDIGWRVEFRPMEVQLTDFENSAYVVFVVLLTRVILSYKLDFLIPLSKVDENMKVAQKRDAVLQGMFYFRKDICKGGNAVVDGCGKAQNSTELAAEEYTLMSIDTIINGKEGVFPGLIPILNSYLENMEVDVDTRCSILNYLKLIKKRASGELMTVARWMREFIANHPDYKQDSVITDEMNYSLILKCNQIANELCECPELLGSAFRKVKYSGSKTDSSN
Procedure: as §1, §2, §3, §4, §5, §6, §7, §8, §9, §10, §11, §12, §13

[5] = target: T5, ALDH6A1 (Homo sapiens, UniProt Q02252); test: ABPP quantitative MS, MCF7
T5 construct: endogenous in cells; host or cells: HEK293T (A21); MCF7 (A27)
T5 sequence (Q02252 34-535): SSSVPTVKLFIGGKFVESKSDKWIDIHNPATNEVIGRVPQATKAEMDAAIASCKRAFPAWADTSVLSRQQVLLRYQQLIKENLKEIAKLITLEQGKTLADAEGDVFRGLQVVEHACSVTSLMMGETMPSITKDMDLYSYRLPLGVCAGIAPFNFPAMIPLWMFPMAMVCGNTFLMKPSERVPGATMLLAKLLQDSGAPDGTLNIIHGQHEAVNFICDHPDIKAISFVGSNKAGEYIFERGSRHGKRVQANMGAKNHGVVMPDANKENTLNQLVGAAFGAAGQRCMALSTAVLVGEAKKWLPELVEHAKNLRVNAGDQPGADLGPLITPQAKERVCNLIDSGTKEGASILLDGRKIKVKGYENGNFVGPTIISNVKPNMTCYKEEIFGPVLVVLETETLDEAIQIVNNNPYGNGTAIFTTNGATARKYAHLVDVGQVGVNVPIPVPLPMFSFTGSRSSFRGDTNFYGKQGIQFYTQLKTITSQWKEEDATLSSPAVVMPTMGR
Procedure: as §1, §2, §3, §4, §5, §6, §7, §8, §9, §10, §11, §12, §13

[6] = target: T6, IRAK4 (Interleukin-1 receptor-associated kinase 4) (Homo sapiens, UniProt Q9NWZ3); test: ABPP quantitative MS, HEK293T
T6 construct: endogenous in cells; host or cells: HEK293T (transfected with 3×FLAG HOIP RBR only)
T6 sequence (Q9NWZ3 whole entry): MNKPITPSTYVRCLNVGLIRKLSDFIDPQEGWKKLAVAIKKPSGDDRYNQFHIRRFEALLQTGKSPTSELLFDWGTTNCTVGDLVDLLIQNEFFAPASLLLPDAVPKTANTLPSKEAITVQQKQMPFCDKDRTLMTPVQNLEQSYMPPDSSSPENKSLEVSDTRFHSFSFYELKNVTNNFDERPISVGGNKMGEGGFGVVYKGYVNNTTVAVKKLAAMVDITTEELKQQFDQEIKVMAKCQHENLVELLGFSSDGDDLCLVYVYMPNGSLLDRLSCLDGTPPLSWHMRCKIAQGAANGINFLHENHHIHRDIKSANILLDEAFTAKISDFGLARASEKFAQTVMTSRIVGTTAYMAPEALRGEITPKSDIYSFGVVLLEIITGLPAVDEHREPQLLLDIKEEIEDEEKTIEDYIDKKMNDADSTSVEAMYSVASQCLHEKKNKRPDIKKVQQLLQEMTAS
Procedure: as §1, §2, §3, §4, §5, §6, §7, §8, §9, §10, §11, §12, §13

[7] = target: T7, NUDT8 (Homo sapiens, UniProt Q8WV74); test: ABPP quantitative MS, HEK293T
T7 construct: endogenous in cells; host or cells: HEK293T
T7 sequence (Q8WV74 whole entry): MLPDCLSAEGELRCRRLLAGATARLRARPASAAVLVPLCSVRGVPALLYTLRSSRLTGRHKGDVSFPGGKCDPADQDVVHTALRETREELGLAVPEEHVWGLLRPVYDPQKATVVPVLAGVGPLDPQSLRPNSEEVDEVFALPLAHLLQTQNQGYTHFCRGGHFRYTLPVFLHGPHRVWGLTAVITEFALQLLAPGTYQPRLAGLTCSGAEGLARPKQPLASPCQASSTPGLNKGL
Procedure: as §1, §2, §3, §4, §5, §6, §7, §8, §9, §10, §11, §12, §13

[8] = target: T8, TRMT61A (Homo sapiens, UniProt Q96FX7); test: ABPP quantitative MS, HEK293T
T8 construct: endogenous in cells; host or cells: HEK293T
T8 sequence (Q96FX7 whole entry): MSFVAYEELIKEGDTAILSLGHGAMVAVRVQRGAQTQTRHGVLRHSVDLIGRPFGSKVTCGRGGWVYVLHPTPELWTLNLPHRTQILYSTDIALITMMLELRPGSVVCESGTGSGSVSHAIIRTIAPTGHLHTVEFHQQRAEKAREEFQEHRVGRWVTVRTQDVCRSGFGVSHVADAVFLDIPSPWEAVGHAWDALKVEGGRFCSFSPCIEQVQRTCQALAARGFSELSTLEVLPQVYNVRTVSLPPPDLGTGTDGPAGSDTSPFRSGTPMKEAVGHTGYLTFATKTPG
Procedure: as §1, §2, §3, §4, §5, §6, §7, §8, §9, §10, §11, §12, §13

[9] = target: T5, ALDH6A1; test: ABPP quantitative MS, HEK293T
Procedure: as §1, §2, §3, §4, §5, §6, §7, §8, §9, §10, §11, §12, §13

[10] = target: T9, RNF31 (E3 ubiquitin-protein ligase RNF31) (Homo sapiens, UniProt Q96EP0); test: ABPP quantitative MS, HEK293T
T9 construct: expressed in transfected cells; host or cells: HEK293T, transient, modified pcDNA3.1(+)
T9 sequence (Q96EP0 697-1072): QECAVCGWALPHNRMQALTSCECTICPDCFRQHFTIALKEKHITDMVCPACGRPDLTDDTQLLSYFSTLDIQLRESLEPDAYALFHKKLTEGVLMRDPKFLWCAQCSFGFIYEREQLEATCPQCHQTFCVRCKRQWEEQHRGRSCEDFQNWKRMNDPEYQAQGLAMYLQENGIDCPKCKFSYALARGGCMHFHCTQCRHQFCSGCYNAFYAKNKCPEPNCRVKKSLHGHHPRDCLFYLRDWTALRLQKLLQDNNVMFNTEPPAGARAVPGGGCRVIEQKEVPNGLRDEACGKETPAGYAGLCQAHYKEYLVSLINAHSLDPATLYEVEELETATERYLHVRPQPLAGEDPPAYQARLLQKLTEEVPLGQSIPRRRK
Procedure: as §1, §2, §3, §4, §5, §6, §7, §8, §9, §10, §11, §12, §13

T1 sequence (Q9H2U1 whole entry): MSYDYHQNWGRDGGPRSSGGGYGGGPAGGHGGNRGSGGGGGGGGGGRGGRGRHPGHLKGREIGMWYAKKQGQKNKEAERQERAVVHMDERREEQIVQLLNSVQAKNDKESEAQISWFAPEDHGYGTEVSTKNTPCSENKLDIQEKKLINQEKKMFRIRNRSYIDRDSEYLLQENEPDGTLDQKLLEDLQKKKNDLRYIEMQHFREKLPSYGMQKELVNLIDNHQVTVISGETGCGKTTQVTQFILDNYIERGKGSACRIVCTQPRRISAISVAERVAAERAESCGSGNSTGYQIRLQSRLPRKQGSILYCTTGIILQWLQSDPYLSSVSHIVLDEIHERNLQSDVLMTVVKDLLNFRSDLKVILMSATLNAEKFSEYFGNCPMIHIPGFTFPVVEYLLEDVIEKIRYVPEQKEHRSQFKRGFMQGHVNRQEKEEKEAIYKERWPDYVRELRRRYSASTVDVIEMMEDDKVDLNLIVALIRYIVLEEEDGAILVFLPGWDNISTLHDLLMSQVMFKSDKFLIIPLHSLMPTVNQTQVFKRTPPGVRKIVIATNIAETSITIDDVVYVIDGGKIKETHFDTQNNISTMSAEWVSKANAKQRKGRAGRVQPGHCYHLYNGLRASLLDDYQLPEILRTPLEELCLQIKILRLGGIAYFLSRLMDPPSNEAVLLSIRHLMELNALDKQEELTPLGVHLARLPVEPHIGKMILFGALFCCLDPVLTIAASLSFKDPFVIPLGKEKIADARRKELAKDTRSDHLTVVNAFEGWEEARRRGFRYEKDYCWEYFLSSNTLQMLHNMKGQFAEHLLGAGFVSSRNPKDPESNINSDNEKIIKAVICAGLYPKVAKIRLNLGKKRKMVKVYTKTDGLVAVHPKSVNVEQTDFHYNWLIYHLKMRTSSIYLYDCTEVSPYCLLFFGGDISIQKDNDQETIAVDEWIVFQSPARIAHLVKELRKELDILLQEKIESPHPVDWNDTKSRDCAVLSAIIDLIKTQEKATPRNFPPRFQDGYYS

COC(=O)/C=C/CNC(=O)c1cc2c([nH]c1=O)CCCC2 [Compound 11a]
ratio: mean ratio between control and competition samples, DHX36 [1]: -0.8884 log2
ratio: mean ratio between control and competition samples, SRBD1 [2]: -0.7897 log2
ratio: mean ratio between control and competition samples, SMG9 [3]: -0.8383 log2
ratio: mean ratio between control and competition samples, GCLC [4]: -0.8853 log2
ratio: mean ratio between control and competition samples, ALDH6A1 [5]: -0.9838 log2
ratio: mean ratio between control and competition samples, IRAK4 [6]: -1.675 log2
ratio: mean ratio between control and competition samples, NUDT8 [7]: -1.172 log2
ratio: mean ratio between control and competition samples, TRMT61A [8]: -1.293 log2
ratio: mean ratio between control and competition samples, ALDH6A1 [9]: -1.278 log2
ratio: mean ratio between control and competition samples, RNF31 [10]: -2.293 log2
